For four compounds, IC50 results are on record in BindingDB's records for doi:10.1016/j.ejmech.2021.113362 (The First Affiliated Hospital of Wenzhou Medical University, 2021).

The structures appear in SMILES notation.

Sequence of Signal transducer and activator of transcription 3 (P40763 whole entry): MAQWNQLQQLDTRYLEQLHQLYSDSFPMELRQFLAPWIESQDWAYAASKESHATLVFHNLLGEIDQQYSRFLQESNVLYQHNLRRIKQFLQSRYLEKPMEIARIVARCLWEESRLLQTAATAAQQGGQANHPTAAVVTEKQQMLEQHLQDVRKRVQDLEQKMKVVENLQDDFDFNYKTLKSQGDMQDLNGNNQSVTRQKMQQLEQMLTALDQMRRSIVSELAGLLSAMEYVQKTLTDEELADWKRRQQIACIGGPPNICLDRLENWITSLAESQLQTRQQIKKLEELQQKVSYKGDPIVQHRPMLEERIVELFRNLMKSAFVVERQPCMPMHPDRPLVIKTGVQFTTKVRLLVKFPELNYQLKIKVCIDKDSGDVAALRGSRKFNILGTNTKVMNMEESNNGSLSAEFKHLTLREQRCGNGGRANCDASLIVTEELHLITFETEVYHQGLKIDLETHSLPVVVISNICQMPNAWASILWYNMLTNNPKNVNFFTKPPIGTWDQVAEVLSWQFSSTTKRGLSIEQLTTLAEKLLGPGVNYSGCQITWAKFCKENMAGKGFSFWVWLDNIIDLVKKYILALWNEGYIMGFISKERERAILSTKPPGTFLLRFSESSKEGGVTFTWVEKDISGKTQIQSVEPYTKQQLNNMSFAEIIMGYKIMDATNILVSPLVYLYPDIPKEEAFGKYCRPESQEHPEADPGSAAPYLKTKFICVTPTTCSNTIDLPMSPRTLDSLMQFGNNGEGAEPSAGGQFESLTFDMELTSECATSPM

The assay has as its target Signal transducer and activator of transcription 3 (Homo sapiens, UniProt P40763). The assay can be described thus: Inhibition of STAT3 phosphorylation in human MDA-MB-231 cells by sandwich ELISA. (An ELISA detects its analyte on a solid surface through an enzyme-linked reagent.)
For orientation: IC50 means the midpoint of a concentration-inhibition curve. High values mean weaker potency in that assay, low ones greater potency in that assay. Compound `CC(C)(C)OC(=O)c1ccc(NC(=O)c2cccc(S(N)(=O)=O)c2)cc1` registered an IC50 of 920 nM.
The figure for `COc1cc(NC(=O)c2ccc(Cl)c(S(N)(=O)=O)c2)cc(OC)c1OC` is 720 nM.
To `CC(C)(C)OC(=O)c1ccc(NC(=O)c2ccc(Cl)c(S(N)(=O)=O)c2)cc1` belongs 230 nM; to `O=C(Nc1ccc([N+](=O)[O-])cc1Cl)c1cc(Cl)ccc1O` [5-chloro-N-(2-chloro-4-nitrophenyl)-2-hydroxybenzamide], 210 nM.
